Measured values from patent US20260232715A1, “TREATMENT OF PANCREATIC CANCER” (CAN-FITE BIOPHARMA LTD., priority 2023, published 2026).

Legend:
BxPC-3 cells [1] = assay: Presto Blue cell growth inhibition assay; format: cell-based, human
Experimental: Cells (15×10^4/mL) were maintained in RPMI medium supplemented with 10% fetal bovine serum (FBS), […], 100 U/ml penicillin, and […] streptomycin solution at 37° C. in a 5% CO2 incubator. Cells were transferred to a freshly prepared medium twice weekly. For the tumor cell growth experiments, BxPC-3 cells (15×10^4/mL) were incubated in the culture medium with control, 5, 10, or 20 nM namodenoson in 96-well microtiter plates for 24 h at 37° C. in a 5% CO2 incubator, after which cell growth inhibition was determined using the Presto Blue assay (Thermo Fisher Scientific, Waltham, MA, USA) used as per the manufacturer's instructions. Experiments under the same conditions with 20 nM namodenoson were also conducted with and without 20 nM of the A3AR antagonist MRS1523 (diluted to the final concentration in RPMI medium).

BxPC-3 cells [2] = assay: BxPC-3 subcutaneous tumor growth in nude mice; format: in vivo, nude Balb/C mice; conditions: 10 μg/kg twice daily for 35 days (Day 22 to Day 57), by Day 57 from tumor inoculation
Experimental: Male nude Balb/C mice (Harlan Laboratories, Jerusalem, Israel), aged 2 months (mean weight, 25 g), received a subcutaneous flank injection of BxPC-3 cells (2.5×10^6). The mice were maintained on a standardized pelleted diet and supplied with tap water. […] Tumor width (W) and length (L) were measured twice weekly with a caliber, and tumor size was calculated (W^2×L/2).

BxPC-3 cells [3] = assay: Western blot analysis of regulatory protein expression; format: cell-based, human; conditions: 20 nM namodenoson, 24 h, vs. control
Experimental: Western blot analyses were performed using the same culture conditions as the Presto Blue experiments in 10 cm plates with 20 nM namodenoson or control. After incubation for 24 h at 37° C. in a 5% CO2 incubator, the cell samples were rinsed with ice-cold PBS and transferred to ice-cold RIPA buffer with 1× protease and phosphatase inhibitor cocktail for 20 min. Cell debris was removed using centrifugation at 4° C. for 10 min, at 7500×g. The supernatant was utilized for the Western blot analyses. Protein concentrations were determined using the NanoDrop assay (ThermoFisher Scientific, Waltham, MA, USA). Equal amounts of the sample (50 μg) were separated by SDS-PAGE, using […] (Schleicher & Schuell, Keene, NH, USA). Membranes were blocked with 1% bovine serum albumin and incubated with the relevant primary antibody (dilution 1:1000) for 24 h at 4° C. Blots were then washed and incubated with the secondary antibody for 1 h at room temperature. Bands were recorded using BCIP/NBT color development kit (Promega, Madison, WI, USA).

BxPC-3 cells [4] = assay: 3H-thymidine incorporation assay (cell growth); format: cell-based; conditions: Homo sapiens, 48 h, read-out: percentage of growth inhibition of BxPC-3 cells
Experimental: Cells (15×10^4/mL) were maintained in RPMI medium supplemented with 10% fetal bovine serum (FBS), […], 100 U/ml penicillin, and […] streptomycin solution at 37° C. in a 5% CO2 incubator. Cells were transferred to a freshly prepared medium twice weekly. 3H-thymidine incorporation assay was used to evaluate cell growth. BxPC-3 cells (5,000 cells/well) were incubated (37° C.) with CF102 (namodenoson) in different concentrations: 0.01 nM, 0.1 nM and 1 nM in a 96-well plate for 48 h. Each well was pulsed with 1 μCi 3H-thymidine for the last 24 h. The cells were harvested, and the 3H-thymidine uptake was determined in an LKB liquid scintillation counter (LKB).

For `CCCOC(=O)c1c(-c2ccccc2)nc(CC)c(C(=O)SCC)c1CCC` [MRS1523, reference compound], the “cell growth, % of the control” value (BxPC-3 cells [1]; 20 nM MRS1523 alone, 24 h) was 100.8%+11.1 % of the control.

With `CNC(=O)[C@H]1O[C@@H](n2cnc3c(NCc4cccc(I)c4)nc(Cl)nc32)[C@H](O)[C@@H]1O` [namodenoson, 2-chloro-N^6-(3-iodobenzyl)-adenosine-5′-N-methyl-uronamide] the “inhibition of tumor growth vs. control” value (BxPC-3 cells [2]) was 67.7%+15.2, the “A3AR protein expression level” value (BxPC-3 cells [3]) was “decrease” and the Bad expression (BxPC-3 cells [3]) was “upregulated”. For the same molecule, the Bax expression (BxPC-3 cells [3]) was “upregulated”, the GSK-3β expression (BxPC-3 cells [3]) was “upregulation” and the NF-κB expression (BxPC-3 cells [3]) was “downregulated”. For the same molecule, the PI3K expression (BxPC-3 cells [3]) was “downregulated”, the “cyclin D1 expression level” value (BxPC-3 cells [3]) was “decrease” and the p-Akt expression (BxPC-3 cells [3]) was “downregulated”. For the same molecule, the “pERK 1/2 expression level” value (BxPC-3 cells [3]) was “decrease”, the “pMEK 1/2 expression level” value (BxPC-3 cells [3]) was “decrease” and the pRaf expression level (BxPC-3 cells [3]) was “decrease”. For the same molecule, the β-catenin expression level (BxPC-3 cells [3]) was “decrease”, the “cell growth, % of the control” value (BxPC-3 cells [1]; 20 nM namodenoson alone, 24 h) was 45.0%+4.2 % of the control and the “cell growth, % of the control” value (BxPC-3 cells [1]; 20 nM namodenoson plus 20 nM MRS1523, 24 h) was 81.1%+6.3 % of the control. It also gave an inhibition at 0.005 µM (BxPC-3 cells [1]; Homo sapiens, BXPC-3, 5 nM, 24 h, mean±SE) of 49.7%, an inhibition at 0.01 µM (BxPC-3 cells [1]; Homo sapiens, BXPC-3, 10 nM, 24 h, mean±SE) of 66.3% and an inhibition at 0.02 µM (BxPC-3 cells [1]; Homo sapiens, BXPC-3, 20 nM, 24 h, mean±SE) of 82.7%. For the same molecule, the inhibition at 10 pM (BxPC-3 cells [4]; 0.01 nM namodenoson) was 27.9%, the inhibition at 0.0001 µM (BxPC-3 cells [4]; 0.1 nM namodenoson) was 53.7% and the inhibition at 0.001 µM (BxPC-3 cells [4]; 1 nM namodenoson) was 67.4%.
